Assay results as given in patent US20230111310A1, “CARBOXYLIC ACID DERIVATIVE-SUBSTITUTED IMINO ARYL COMPOUND, PREPARATION METHOD THEREFOR, HERBICIDAL COMPOSITION AND USE THEREOF” (Qingdao Kingagroot Chemical Compound Co., Ltd., priority 2020, published 2023).

Tests used:
Format in all cases: in vivo
Amaranthus retroflexus [1] = test: Weeding effect in post-emergence stage; details: 7.5 g/ha, 3 weeks
Outline: (§1)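 Read-out is growth control rate, counted 3 weeks post-spray and averaged over three repeats. Greenhouse plants at the 2-3 leaf stage received spray-tower application at 500, 250, 125, 60, 30, 15 or 7.5 g/ha, with methyl oleate EC (1.5 liter/ha) and Tween 80 added.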

Echinochloa crusgalli = test: Weeding effect in post-emergence stage; details: for Weeding effect in post-emergence stage, Echinochloa crusgalli: level of fresh weight growth control rate; for activity level (growth control rate) Echinochloa crusgalli: post-emergence, 7.5 g/ha, 3 weeks
Outline: as §1

Digitaria sanguinalis = test: Weeding effect in post-emergence stage; details: for Weeding effect in post-emergence stage, Digitaria sanguinalis: level of fresh weight growth control rate
Outline: as §1

Eleusine indica = test: Weeding effect in post-emergence stage; details: for Weeding effect in post-emergence stage, Eleusine indica: level of fresh weight growth control rate; for activity level (growth control rate) Eleusine indica: post-emergence, 7.5 g/ha, 3 weeks
Outline: as §1

Abutilon theophrasti [2] = test: Weeding effect in post-emergence stage; details: level of fresh weight growth control rate
Outline: as §1

Setaria viridis [3] = test: Weeding effect in post-emergence stage; details: for Weeding effect in post-emergence stage, Setaria viridis: level of fresh weight growth control rate
Outline: as §1

Alopecurus japonicus = test: Weeding effect in post-emergence stage; details: for Weeding effect in post-emergence stage, Alopecurus japonicus: level of fresh weight growth control rate
Outline: as §1

corn = test: Pre-emergence stage, crop selectivity; details: 30 g/ha, 4 weeks
Outline: (§2)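 Pots were kept in the greenhouse for 4 weeks and then rated for growth control on activity-level criteria. Spraying took place immediately after sowing at application rates of 500 to 7.5 g/ha, using an acetone/tween 80 formulation diluted with water, on seeds under 0.5-2 cm of soil.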

Peanut = test: Pre-emergence stage, crop selectivity; details: 30 g/ha, 4 weeks
Outline: as §2

Soybeans = test: Pre-emergence stage, crop selectivity; details: 30 g/ha, 4 weeks
Outline: as §2

cotton = test: Pre-emergence stage, crop selectivity; details: 30 g/ha, 4 weeks
Outline: as §2

Abutilon theophrasti [4] = test: Weeding effect in pre-emergence stage; details: 30 g/ha, 4 weeks
Outline: as §2

Capsella bursa-pastoris = test: Weeding effect in pre-emergence stage; details: 30 g/ha, 4 weeks
Outline: as §2

Setaria viridis [5] = test: Weeding effect in pre-emergence stage; details: 30 g/ha, 4 weeks
Outline: as §2

Amaranthus retroflexus [6] = test: Weeding effect in pre-emergence stage; details: 30 g/ha, 4 weeks
Outline: as §2

Veronica didyma Tenore = test: Weeding effect in pre-emergence stage; details: 30 g/ha, 4 weeks
Outline: as §2

Descurainia sophia = test: Weeding effect in pre-emergence stage; details: 30 g/ha, 4 weeks
Outline: as §2

Malachium aquaticum = test: Composition activity test, post-emergence foliage spray; details: B 3 g a.i./ha
Protocol: are as follows, and the others were purchased from reagent companies. The technical materials were all dissolved in acetone and diluted with an aqueous solution containing 0.1% emulsifier Tween-80. The dilution is performed as required.
Weeds were cultivated by a pot culture method. […] Full and uniform weed seeds were selected, soaked in warm water at 25° C. for 6 hours, and germinated in a 28° C. biochemical incubator (darkness). The weed seeds that had just germinated were evenly placed on the surface of the soil and then covered with 0.5-1 cm soil according to the sizes of seeds.
The culture was carried out in a controllable sunlight greenhouse at 20 to 30° C., in natural light, and relative humidity of 57% to 72%.
3 pots with 20 weed seeds per pot were treated in one treatment with 4 replications per treatment.
The agents were used for only once in the experiment. In the stage of weeds with 1.5-2 leaves, the weeds were thinned out to maintain 10 weeds per pot and 30 weeds for each treatment, then continued to be cultured to Conyza Canadensis 10 cm in height, other weeds 3-4 leaves stage and treated.
The well-cultured weeds were evenly placed on a platform with an area of 0.5 m^2, and a solution of agents was sprayed on the stems and leaves thereof by the 3WP-2000-type walking spray tower at a dosage of 450 kg/ha and at a spray pressure of 0.3 MPa. After all the solution was sprayed, the valve was closed. After 30 seconds, the door of the spray tower was opened, and the nutritional bowl was taken out. Then the valve was opened, and the spray tube was cleaned by spraying 50 ml of water. After the treatment, the weeds were routinely cultured in a greenhouse.
A method for investigating absolute number was employed, wherein whole seedlings of survival weeds were cut off with a blade along the soil surface, and the fresh weight of the weeds was weighed with an analytical balance. For dead weeds, the fresh weight thereof was zero.
The investigation was performed after 21 days of the treatment for only once.
An optimum ratio of the two active ingredients was determined by the actual control effect, characteristics of herbicides, and balance of a corresponding formula. Wherein, in the formula, X represented the fresh weight inhibition rate of the active ingredient A in a dosage of P, and Y represented the fresh weight inhibition rate of the active ingredient B in a dosage of Q. The statistical results were shown in the table 6.

[7] = Dose 15 g/ha, fresh weight control rate level

Row | Compound | activity level (growth control rate) Amaranthus retroflexus (Amaranthus retroflexus [1]) | Weeding effect in post-emergence stage, Echinochloa crusgalli (Echinochloa crusgalli; Dose 15 g/ha) | activity level (growth control rate) Echinochloa crusgalli (Echinochloa crusgalli) | Weeding effect in post-emergence stage, Digitaria sanguinalis (Digitaria sanguinalis; Dose 15 g/ha) | Weeding effect in post-emergence stage, Eleusine indica (Eleusine indica; Dose 15 g/ha) | activity level (growth control rate) Eleusine indica (Eleusine indica) | Weeding effect in post-emergence stage, Abutilon theophrasti (Abutilon theophrasti [2]; Dose 15 g/ha) | Weeding effect in post-emergence stage, Setaria viridis (Setaria viridis [3]; Dose 15 g/ha) | Weeding effect in post-emergence stage, Alopecurus japonicus (Alopecurus japonicus; Dose 15 g/ha) | further results
1 | COC(=O)C(C)O/N=C/c1cc(-n2c(=O)cc(C(F)(F)F)n(C)c2=O)c(F)cc1Cl (racemic) [Compound 194] | 5 (Level 5: growth control rate is above 85%) | 5 (Level 5: growth control rate is above 85%) | 4 (Level 4: growth control rate is greater than or equal to 60% and less than 85%) | 5 (Level 5: growth control rate is above 85%) | 5 (Level 5: growth control rate is above 85%) | 4 (Level 4: growth control rate is greater than or equal to 60% and less than 85%) | 5 (Level 5: growth control rate is above 85%) | 5 (Level 5: growth control rate is above 85%) | 5 (Level 5: growth control rate is above 85%) | Weeding effect in post-emergence stage, Echinochloa crusgalli (Echinochloa crusgalli; Dose 7.5 g/ha): 5 (Level 5: growth control rate is above 85%); Weeding effect in post-emergence stage, Digitaria sanguinalis (Digitaria sanguinalis; Dose 7.5 g/ha): 5 (Level 5: growth control rate is above 85%); Weeding effect in post-emergence stage, Eleusine indica (Eleusine indica; Dose 7.5 g/ha): 5 (Level 5: growth control rate is above 85%); Weeding effect in post-emergence stage, Abutilon theophrasti (Abutilon theophrasti [2]; Dose 7.5 g/ha): 5 (Level 5: growth control rate is above 85%); Weeding effect in post-emergence stage, Setaria viridis (Setaria viridis [3]; Dose 7.5 g/ha): 5 (Level 5: growth control rate is above 85%); Weeding effect in post-emergence stage, Alopecurus japonicus (Alopecurus japonicus; Dose 7.5 g/ha): 4 (Level 4: growth control rate is greater than or equal to 60% and less than 85%)
2 | COC(=O)[C@@H](C)O/N=C/c1cc(-n2c(=O)n(C)c(=S)n(C)c2=O)c(F)cc1Cl [1(R)] | 5 (Level 5: growth control rate is above 85%) | 5 (Level 5: growth control rate is above 85%) | 4 (Level 4: growth control rate is greater than or equal to 60% and less than 85%) | 5 (Level 5: growth control rate is above 85%) | 5 (Level 5: growth control rate is above 85%) | 5 (Level 5: growth control rate is above 85%) | 5 (Level 5: growth control rate is above 85%) | 5 (Level 5: growth control rate is above 85%) | 5 (Level 5: growth control rate is above 85%) | plant damage level Corn (corn): 0 (Level 0: growth control rate is less than 5%); plant damage level Peanut (Peanut): 0 (Level 0: growth control rate is less than 5%); plant damage level Soybeans (Soybeans): 0 (Level 0: growth control rate is less than 5%); plant damage level Cotton (cotton): 0 (Level 0: growth control rate is less than 5%); activity level (growth control rate) Abutilon theophrasti (Abutilon theophrasti [4]): 5 (Level 5: growth control rate is above 85%); activity level (growth control rate) Capsella bursa-pastoris (Capsella bursa-pastoris): 5 (Level 5: growth control rate is above 85%); activity level (growth control rate) Setaria viridis (Setaria viridis [5]): 5 (Level 5: growth control rate is above 85%); activity level (growth control rate) Amaranthus retroflexus (Amaranthus retroflexus [6]): 5 (Level 5: growth control rate is above 85%); activity level (growth control rate) Veronica didyma Tenore (Veronica didyma Tenore): 5 (Level 5: growth control rate is above 85%); activity level (growth control rate) Descurainia sophia (Descurainia sophia): 5 (Level 5: growth control rate is above 85%)
3 | COC(=O)[C@H](C)O/N=C/c1cc(-n2c(=O)n(C)c(=S)n(C)c2=O)c(F)cc1Cl [1(S)] | 1 (Level 1: growth control rate is greater than or equal to 5% and less than 20%) | – | 1 (Level 1: growth control rate is greater than or equal to 5% and less than 20%) | – | – | 1 (Level 1: growth control rate is greater than or equal to 5% and less than 20%) | – | – | – | –
4 | COC(=O)[C@H](C)O/N=C/c1cc(-n2c(=O)cc(C(F)(F)F)n(C)c2=O)c(F)cc1Cl [194(S)] | 2 (Level 2: growth control rate is greater than or equal to 20% and less than 40%) | – | 1 (Level 1: growth control rate is greater than or equal to 5% and less than 20%) | – | – | 1 (Level 1: growth control rate is greater than or equal to 5% and less than 20%) | – | – | – | –
5 | COC(=O)C(C)O/N=C/c1cc(-n2c(=O)n(C)c(=S)n(C)c2=O)c(F)cc1Cl (stereo not shown) [Compound 1] | 3 (Level 3: growth control rate is greater than or equal to 40% and less than 60%) | 5 (Level 5: growth control rate is above 85%) | 3 (Level 3: growth control rate is greater than or equal to 40% and less than 60%) | 5 (Level 5: growth control rate is above 85%) | 5 (Level 5: growth control rate is above 85%) | 3 (Level 3: growth control rate is greater than or equal to 40% and less than 60%) | 5 (Level 5: growth control rate is above 85%) | 5 (Level 5: growth control rate is above 85%) | 5 (Level 5: growth control rate is above 85%) | –
6 | COC(=O)CO/N=C/c1cc(-n2c(=O)cc(C(F)(F)F)n(C)c2=O)c(F)cc1Cl [Control compound D, reference compound] | 2 (Level 2: growth control rate is greater than or equal to 20% and less than 40%) | – | 1 (Level 1: growth control rate is greater than or equal to 5% and less than 20%) | – | – | 2 (Level 2: growth control rate is greater than or equal to 20% and less than 40%) | – | – | – | Weeding effect in post-emergence stage, Echinochloa crusgalli (level) (Echinochloa crusgalli; [7]): 4 (Level 4: growth control rate is greater than or equal to 60% and less than 85%); Weeding effect in post-emergence stage, Digitaria sanguinalis (level) (Digitaria sanguinalis; [7]): 3 (Level 3: growth control rate is greater than or equal to 40% and less than 60%); Weeding effect in post-emergence stage, Eleusine indica (level) (Eleusine indica; [7]): 3 (Level 3: growth control rate is greater than or equal to 40% and less than 60%); Weeding effect in post-emergence stage, Setaria viridis (level) (Setaria viridis [3]; [7]): 3 (Level 3: growth control rate is greater than or equal to 40% and less than 60%); Weeding effect in post-emergence stage, Alopecurus japonicus (level) (Alopecurus japonicus; [7]): 2 (Level 2: growth control rate is greater than or equal to 20% and less than 40%)
7 | COC(=O)c1ccccc1S(=O)(=O)NC(=O)N(C)c1nc(C)nc(OC)n1 [tribenuron-methyl] | – | – | – | – | – | – | – | – | – | Control effect (%) of B applied alone (B) (Malachium aquaticum): 27.9%
